From paper PMC11364775, “Ion occupancy of the selectivity filter controls opening of a cytoplasmic gate in the K2P channel TALK-2” (Nature Communications, 2024)

Experiments:
WT TALK-2 channels = target: T1, WT TALK-2 channels (Homo sapiens, UniProt Q96T54); test: Conductance-voltage (G-V) curves from tail currents, V1/2 (intracellular Rb+); format: cell-based; design: expressed in transfected cells; host or cells: Xenopus laevis oocytes (cRNA injection), excised inside-out patches; conditions: for Normalized current: TALK-2 WT + 5 µM Oleoyl-CoA
T1 sequence (Q96T54 1-332): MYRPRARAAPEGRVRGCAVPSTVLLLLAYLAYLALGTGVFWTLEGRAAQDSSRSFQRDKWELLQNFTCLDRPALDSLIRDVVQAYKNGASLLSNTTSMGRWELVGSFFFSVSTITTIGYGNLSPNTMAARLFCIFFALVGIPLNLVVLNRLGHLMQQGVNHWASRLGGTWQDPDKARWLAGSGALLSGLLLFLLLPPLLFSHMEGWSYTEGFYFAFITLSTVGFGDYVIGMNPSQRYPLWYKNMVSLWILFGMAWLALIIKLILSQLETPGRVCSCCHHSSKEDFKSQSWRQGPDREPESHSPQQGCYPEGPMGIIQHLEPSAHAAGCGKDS
Description: The voltage-dependent activation mechanism of the SF gate in K2P channels allows to estimate the electrical work (ΔG = zFΔV1/2) required for pore opening by fitting the G–V curve to a Boltzmann equation. […] The open state represents the situation of both gates being simultaneously open but voltage can only exert force on the SF gate that functions as voltage sensor. […] We further tested whether mutations that open the lower gate (L262A and L264A) would affect the extracellular pH sensitivity. […] We further explored this concept of allosteric coupling using the mutations identified in the functional alanine screen of TM2 and TM4. […]
Conductance-voltage (G–V) relationships were determined from tail currents recorded at a holding potential (VH) of −80 mV after 300 ms depolarizing steps as indicated in the respective figure legend. Data were analyzed with a single Boltzmann fit following Eq. 6:6 GV=Imax/1+e^V−V1/2/slope+Ibase where V1/2 represents the voltage of half-maximal activation, s is the slope factor and Imax and Ibase represent the upper and lower asymptotes. Under appropriate experimental conditions, you can use slope to calculate the valence (charge) of the ion moving across the channel. Slope equals R * T/ z * F where R is the universal gas constant, T is temperature in K, F is the Faraday constant, and z is the valence.

[1] = target: T2, WT TALK-2 channels (human K2P17.1) (Homo sapiens, UniProt Q96T54); test: Inside-out patch-clamp, ligand activation of channel currents at +40 mV (oocytes); conditions: 5 µM; TALK-2 WT
T2 sequence (Q96T54 1-332): T1 sequence (Q96T54 1-332)
Description: Oocytes were surgically removed from anesthetized adult females, treated with type II collagenase (Sigma-Aldrich/Merck, Germany) and manually defolliculated. 50 nl of a solution containing the K^+ channel specific cRNA was injected into Dumont stage V - VI oocytes and subsequently incubated at 17 °C in a solution containing (mM): 54 NaCl, 30 KCl, 2.4 NaHCO3, 0.82 MgSO4 x 7 H2O, 0.41 CaCl2, 0.33 Ca(NO3)2 x 4 H2O and 7.5 TRIS (pH 7.4 adjusted with NaOH/HCl) for 1–7 days before use. Electrophysiological recordings: Excised patch measurements in inside-out configuration under voltage-clamp conditions were performed at room temperature (22 – 24 °C). […] Intracellular bath solutions and compounds were applied to the cytoplasmic side of excised patches for the various K^+ channels via a gravity flow multi-barrel pipette system. Intracellular solution had the following composition (in mM): 120 KCl, 10 HEPES, 2 EGTA and 1 Pyrophosphate (pH adjusted with KOH/HCl). In other intracellular bath solutions, K^+ was replaced by Rb^+ (pH 7.4 adjusted with RbOH/HCl). Currents were recorded with an EPC10 amplifier (HEKA electronics, Germany) and sampled at 10 kHz or higher and filtered with 3 kHz (-3 dB) or higher as appropriate for sampling rate.
Recorded currents were analyzed from stable membrane patches at a voltage defined in the respective figure legend or with a voltage protocol as indicated in the respective figure. The fold activation (fold change in (tail) current amplitude) of a ligand (drug or bioactive lipid) was calculated from Eq. 1:1 Fold activationFA=Iactivated/Ibasal where Iactivated represents the stable current level in the presence of a given concentration of a respective ligand and Ibasal the measured current before ligand application. Percentage inhibition or residual currents upon blocker application for a ligand (drug or bioactive lipid) was calculated from stable currents of excised membrane patches using the following Eqs. 2 and 3:2 %inhibition=1−Iinhibited/Ibasal*100 3 Residual current=100−%inhibition where Iinhibited refers to the stable current level recorded in the presence of a given concentration of a drug or bioactive lipid and Ibasal to the measured current before ligand application. The macroscopic half-maximal concentration-inhibition relationship of a ligand was obtained using a Hill-fit for dose-response curves as depicted in Eq. 4:4 %inhibition/activation=Ibase+Imax−Ibase/1+x1/2/x^rate where base and max are the currents in the absence and presence of a respective ligand, x is the concentration of the ligand, x1/2 is the ligand concentration at which the activatory or inhibitory effect is half-maximal, rate is the Hill coefficient.

**Q.** Which “V1/2 shift (mV)” value (WT TALK-2 channels; 5 µM Oleoyl-CoA, shift of G-V curve) does the source give for `CCCCCCCC/C=C\CCCCCCCC(=O)SCCNC(=O)CCNC(=O)[C@H](O)C(C)(C)COP(=O)(O)OP(=O)(O)OC[C@H]1O[C@@H](n2cnc3c(N)ncnc32)[C@H](O)[C@@H]1OP(=O)(O)O` [oleoyl-CoA] here?
**A.** Its value is 26.7 mV.

**Q.** And the Normalized current (WT TALK-2 channels; Voltage 0.000)?
**A.** Its Normalized current is 0.186.

**Q.** And the Normalized current (WT TALK-2 channels; Voltage 0.005)?
**A.** Its Normalized current is 0.210.

**Q.** What about the Normalized current (WT TALK-2 channels; Voltage 0.010) of the same molecule?
**A.** The Normalized current was 0.238.

**Q.** And the Normalized current (WT TALK-2 channels; Voltage 0.015)?
**A.** Its Normalized current is 0.274.

**Q.** And the Normalized current (WT TALK-2 channels; Voltage 0.020)?
**A.** The Normalized current was 0.318.

**Q.** What about the Normalized current (WT TALK-2 channels; Voltage 0.025) of the same molecule?
**A.** The Normalized current was 0.366.

**Q.** And the Normalized current (WT TALK-2 channels; Voltage 0.030)?
**A.** The Normalized current was 0.416.

**Q.** And the Normalized current (WT TALK-2 channels; Voltage 0.035)?
**A.** Its Normalized current is 0.467.

**Q.** What about the Normalized current (WT TALK-2 channels; Voltage 0.040) of the same molecule?
**A.** The Normalized current was 0.514.

**Q.** What about the Normalized current (WT TALK-2 channels; Voltage 0.045) of the same molecule?
**A.** Its Normalized current is 0.557.

**Q.** And the Normalized current (WT TALK-2 channels; Voltage 0.050)?
**A.** The Normalized current was 0.597.

**Q.** What about the Normalized current (WT TALK-2 channels; Voltage 0.055) of the same molecule?
**A.** Its Normalized current is 0.633.

**Q.** And the Normalized current (WT TALK-2 channels; Voltage 0.060)?
**A.** Its Normalized current is 0.668.

**Q.** What about the Normalized current (WT TALK-2 channels; Voltage 0.065) of the same molecule?
**A.** The Normalized current was 0.699.

**Q.** What about the Normalized current (WT TALK-2 channels; Voltage 0.070) of the same molecule?
**A.** Its Normalized current is 0.727.

**Q.** And the Normalized current (WT TALK-2 channels; Voltage 0.075)?
**A.** Its Normalized current is 0.755.

**Q.** What about the Normalized current (WT TALK-2 channels; Voltage 0.080) of the same molecule?
**A.** The Normalized current was 0.778.

**Q.** And the Normalized current (WT TALK-2 channels; Voltage 0.085)?
**A.** The Normalized current was 0.804.

**Q.** What about the Normalized current (WT TALK-2 channels; Voltage 0.090) of the same molecule?
**A.** Its Normalized current is 0.822.

**Q.** And the Normalized current (WT TALK-2 channels; Voltage 0.095)?
**A.** The Normalized current was 0.844.

**Q.** And the Normalized current (WT TALK-2 channels; Voltage 0.100)?
**A.** Its Normalized current is 0.861.

**Q.** What about the Normalized current (WT TALK-2 channels; Voltage 0.105) of the same molecule?
**A.** The Normalized current was 0.882.

**Q.** And the Normalized current (WT TALK-2 channels; Voltage 0.110)?
**A.** The Normalized current was 0.895.

**Q.** And the Normalized current (WT TALK-2 channels; Voltage 0.115)?
**A.** Its Normalized current is 0.911.

**Q.** What about the Normalized current (WT TALK-2 channels; Voltage 0.120) of the same molecule?
**A.** Its Normalized current is 0.926.

**Q.** What about the Normalized current (WT TALK-2 channels; Voltage 0.125) of the same molecule?
**A.** The Normalized current was 0.934.

**Q.** And the Normalized current (WT TALK-2 channels; Voltage 0.130)?
**A.** Its Normalized current is 0.943.

**Q.** And the Normalized current (WT TALK-2 channels; Voltage 0.135)?
**A.** The Normalized current was 0.956.

**Q.** And the Normalized current (WT TALK-2 channels; Voltage 0.140)?
**A.** Its Normalized current is 0.963.

**Q.** What about the Normalized current (WT TALK-2 channels; Voltage 0.145) of the same molecule?
**A.** Its Normalized current is 0.968.

**Q.** And the Normalized current (WT TALK-2 channels; Voltage 0.150)?
**A.** Its Normalized current is 0.977.

**Q.** What about the Normalized current (WT TALK-2 channels; Voltage 0.155) of the same molecule?
**A.** Its Normalized current is 0.979.

**Q.** And the Normalized current (WT TALK-2 channels; Voltage 0.160)?
**A.** The Normalized current was 0.985.

**Q.** And the Normalized current (WT TALK-2 channels; Voltage -0.005)?
**A.** Its Normalized current is 0.170.

**Q.** What about the Normalized current (WT TALK-2 channels; Voltage -0.010) of the same molecule?
**A.** Its Normalized current is 0.157.

**Q.** What about the Normalized current (WT TALK-2 channels; Voltage -0.015) of the same molecule?
**A.** The Normalized current was 0.148.

**Q.** What about the Normalized current (WT TALK-2 channels; Voltage -0.020) of the same molecule?
**A.** Its Normalized current is 0.137.

**Q.** And the Normalized current (WT TALK-2 channels; Voltage -0.025)?
**A.** Its Normalized current is 0.129.

**Q.** What about the Normalized current (WT TALK-2 channels; Voltage -0.030) of the same molecule?
**A.** Its Normalized current is 0.123.

**Q.** What about the Normalized current (WT TALK-2 channels; Voltage -0.035) of the same molecule?
**A.** Its Normalized current is 0.120.

**Q.** What about the Normalized current (WT TALK-2 channels; Voltage -0.040) of the same molecule?
**A.** Its Normalized current is 0.115.

**Q.** And the Normalized current (WT TALK-2 channels; Voltage -0.045)?
**A.** The Normalized current was 0.109.

**Q.** And the Normalized current (WT TALK-2 channels; Voltage -0.050)?
**A.** Its Normalized current is 0.104.

**Q.** And the Normalized current (WT TALK-2 channels; Voltage -0.055)?
**A.** Its Normalized current is 0.102.

**Q.** And the Normalized current (WT TALK-2 channels; Voltage -0.060)?
**A.** Its Normalized current is 0.097.

**Q.** What about the Normalized current (WT TALK-2 channels; Voltage -0.065) of the same molecule?
**A.** Its Normalized current is 0.093.

**Q.** What about the Normalized current (WT TALK-2 channels; Voltage -0.070) of the same molecule?
**A.** The Normalized current was 0.092.

**Q.** And the Normalized current (WT TALK-2 channels; Voltage -0.075)?
**A.** Its Normalized current is 0.089.

**Q.** What about the Normalized current (WT TALK-2 channels; Voltage -0.080) of the same molecule?
**A.** Its Normalized current is 0.088.

**Q.** And the Normalized current (WT TALK-2 channels; Voltage -0.085)?
**A.** Its Normalized current is 0.088.

**Q.** And the Normalized current (WT TALK-2 channels; Voltage -0.090)?
**A.** The Normalized current was 0.087.

**Q.** What about the Normalized current (WT TALK-2 channels; Voltage -0.095) of the same molecule?
**A.** The Normalized current was 0.087.

**Q.** What about the Normalized current (WT TALK-2 channels; Voltage -0.100) of the same molecule?
**A.** The Normalized current was 0.087.

**Q.** What about the Normalized current (WT TALK-2 channels; Voltage -0.105) of the same molecule?
**A.** The Normalized current was 0.086.

**Q.** What about the Normalized current (WT TALK-2 channels; Voltage -0.110) of the same molecule?
**A.** The Normalized current was 0.086.

**Q.** What about the Normalized current (WT TALK-2 channels; Voltage -0.115) of the same molecule?
**A.** The Normalized current was 0.086.

**Q.** And the Normalized current (WT TALK-2 channels; Voltage -0.120)?
**A.** The Normalized current was 0.086.

**Q.** And the V1/2 (WT TALK-2 channels; TALK-2 WT, 5 µM ligand)?
**A.** The V1/2 was 44.9 mV.

**Q.** And the “Fold activation 5 µM oleoyl-CoA” value [1]?
**A.** Its value is 19.13 fold.
